Assay results from patent publication US20250146022A1, “STABILISING THE HUMAN SPINDLE BY KIFC1/HSET” (MAX-PLANCK-GESELLSCHAFT ZUR FOERDERUNG DER WISSENSCHAFTEN …, priority 2021, published 2025).

System: human oocytes
Assay: Live imaging of spindle assembly and chromosome segregation in human oocytes microinjected with KIFC1/HSET (mClover3-HSET)
Assay type: cell-based
Protocol: As shown in various Figures herein and specifically referred in Example 2, the bipolar meiotic spindle is assessed or detected by fluorescence microscopy or polarized light microscopy. In practice, the oocyte is not is typically not assessed by fluorescence microscopy, when the oocyte is used for in vitro fertilization at a later stage as this would require sacrificing the oocytes for analysis. The change in probability represents a characteristic of human oocytes when KIFC1/HSET is introduced into the human oocyte. […] Similarly, it is also expected that KIFC1/HSET stabilizes the mitotic spindle in human zygotes. The skilled person is aware of how to determine the duration of spindle pole instability and is provided with further guidance in Example 2 herein. Briefly, the duration of spindle pole instability refers to the duration of excessive spindle pole remodeling after early spindle bipolarization. In the case of human oocytes, the remodeling is largely the widening or fragmentation of spindle poles, which results in apolar or multipolar spindle. The start and end points are determined from the videos based on the first and last time points in which the spindle was not bipolar.
Anaphase onset refers to the time point before chromosome separation was first observed, as defined in the inventors previous study (2). […] Thus, there was a difference of 30.6% relative to the starting percentage of 44%. In other words, the human oocytes in FIG. 8D into which KIFC1/HSET has been introduced have a 1.7 fold (75%/44%) higher probability of aligned chromosomes at anaphase onset in comparison to an oocyte without introduced KIFC1/HSET.
In general, lagging chromosomes during anaphase are known in the art and are a consequence of chromosomes or chromatids not properly separating from each other. […] Lagging chromosomes are therefore a common cause of aneuploidy. […] Specifically, 33.3% of oocytes without introduced KIFC1/HSET had no lagging: chromosomes, while 62.5% of oocytes with introduced KIFC1/HSET had no lagging chromosomes. Thus, there was a difference of 29.5% based on the starting percentage of 33%. In other words, the human oocytes in FIG. 8E into which KIFC1/HSET has been introduced have a 1.9 fold (62.5%/33.3%) higher probability of aligned chromosomes at anaphase onset in comparison to an oocyte without introduced KIFC1/HSET.
To confirm that the lack of KIFC1/HSET is a major contributor to spindle instability in human oocytes, the inventors introduced KIFC1/HSET into human oocytes in FIG. 8. To visualize the dynamics of microtubules and chromosomes using live cell imaging, human oocytes were stained with 5′-SiR-tubulin and SPY555-DNA, respectively. […] The inventors also quantified the frequency of misaligned chromosomes at anaphase onset (FIG. 8D) and lagging chromosomes (FIG. 8E) in human oocytes non-injected and injected with KIFC1/HSET. […] Together, the inventors infer that the introduction of KIFC1/HSET stabilized the meiotic spindle and reduced the risk of aneuploidy in human oocytes.
The use of unfertilized human oocytes in this study was approved by the UK's National Research Ethics Service under the REC reference 11/EE/0346 (IRAS Project ID 84952) and the Ärztekammer Niedersachsen (Ethics Committee of Lower Saxony) under the reference 15/2016. Oocytes were collected from patients who underwent ovarian stimulation for intracytoplasmic sperm injection (ICSI) as part of their assisted reproduction treatment at the Bourn Hall Clinic or Kinderwunschzentrum Göttingen or Fertility Center Berlin. Only oocytes that were immature at the time of ICSI and thus unsuitable for the procedure were used in this study. All patients gave informed consent for their surplus oocyte(s) to be used in this study. Oocytes were cultured as previously described (1). Briefly, within 3-5 h after retrieval from ovaries, oocytes were transferred into G-MOPS (Vitrolife) supplemented with 10% FBS under paraffin oil at 37° C. […]

“KIFC1/HSET: Recombinant mClover3-tagged human kinesin-14 KIFC1/HSET protein (SEQ ID NO: 1), expressed in 293 cells, microinjected into human oocytes and zygotes” was tested, and the “fold higher probability of aligned chromosomes at anaphase onset vs oocyte without introduced KIFC1/HSET (FIG. 8E, lagging chromosomes)” value (62.5%/33.3%, FIG. 8E) was 1.9 fold, the “fold higher probability of aligned chromosomes at anaphase onset vs oocyte without introduced KIFC1/HSET” value (75%/44%, FIG. 8D) was 1.7 fold and the “difference in oocytes with no lagging chromosomes” value (based on the starting percentage of 33%) was 29.5%. The “time of early spindle bipolarization after onset of microtubule nucleation” value (injected human oocytes, non-injected 2.4 h, p=0.7197, FIG. 8B) was 2.65 h, the “duration of spindle pole instability” value (injected human oocytes, non-injected 10.3 h, p<0.0001, FIG. 8C) was 3.4 h and the “proportion of human oocytes with no lagging chromosome” value (oocytes with introduced KIFC1/HSET, without 33.3%, FIG. 8E) was 62.5%. The “proportion of human oocytes with aligned chromosomes at anaphase onset” value (oocytes with introduced KIFC1/HSET, without 44.4%, FIG. 8D) was 75% and the “difference in oocytes with aligned chromosomes at anaphase onset” value (relative to the starting percentage of 44%) was 30.6%.
